Laboratory results taken from patent US20030149028A1, “Pesticidal compositions” (priority 2001, published 2003).

Key:
Format in all cases: in vivo
[1] = system: black bean aphids (Aphis fabae); assay: Method B: Aphis fabae Screen; conditions: concentration of 500 ppm or less; added to water of field bean (Vicia faba) plants, effect on aphids after 3 and 6 days at 25° C.
Description: Method B: Aphis fabae Screen Germinated field bean seeds (Vicia faba) with roots were transferred into bottles filled with tap water and an aqueous solution of the formulated preparation to be examined (4 ml) was added. The plants were then infested with approximately 100 black bean aphids (Aphis fabae) and stored in a controlled-environment cabinet at 25° C. After 3 and 6 days storage, the effect of the preparation on the aphids was determined.

[2] = system: rice leafhopper species Nephoteftix cincticeps; assay: Method D: Nephotettix cinciceps Screen; conditions: concentration of 500 ppm or less; rice plants dipped, L3 larvae, after 6 days at 25° C.
Description: Method D: Nephotettix cinciceps Screen
The leaves of 12 rice plants having a stem length of 8 cm were dipped for 5 seconds into an aqueous solution of the formulated preparation to be examined. After the solution had run off, the rice plants treated in this manner were placed in a Petri dish and populated with about 20 larvae (L3 stage) of the rice leafhopper species Nephoteftix cincticeps. The Petri dish was closed and then stored in a climate chamber (16 hours of light/day, 25° C., 40-60% relative atmospheric humidity). After 6 days storage, the mortality among the leafhopper larvae was determined.

[3] = system: tick larvae (Rhipicephalus sanguineus); assay: Method E: Rhipicephalus sanguineus Screen; conditions: concentration of 500 ppm or less, treated filter paper, after 24 hours at 25° C.
Description: Method E: Rhipicephalus sanguineus Screen A solution of the formulated preparation to be examined was dropped onto filter paper. After solvent evaporation the filter paper was infested with 20-30 tick larvae (Rhipicephalus sanguineus). After 24 hours storage at 25° C. the efficacy of the preparation was determined.

In the case of `CC1=NN(c2c(Cl)cc(C(F)(F)F)cc2Cl)C(=O)C12CC=C(c1ccccc1)C[S+]2[O-]` (stereo not drawn) [Compound 12, [1-(2,6-dichloro-4-trifluoromethylphenyl)-3-methylpyrazolin-5-one]-4-spiro-2′-(5′-phenyl-1′-oxo-2′H-3′,6′-dihydrothiane)], the control [1] is reported as “at least 50%”.

In the case of `CC1=NN(c2c(Cl)cc(C(F)(F)F)cc2Cl)C(=O)C12SC1C=CC2C1` (stereo not drawn) [Compound 8, [1-(2,6-dichloro-4-trifluoromethylphenyl)-3-methylpyrazolin-5-one]-4-spiro-3′-(2′-thiabicyclo[2.2.1]hept-5′-ene)], the “control (mortality among the leafhopper larvae)” value [2] is reported as “at least 50%”.

`CC1=C(C)CC2(SC1)C(=O)N(c1c(Cl)cc(C(F)(F)F)cc1Cl)N=C2C#N` (stereo not drawn) [Compound 9, [1-(2,6-dichloro-4-trifluoromethylphenyl)-3-cyanopyrazolin-5-one]-4-spiro-2′-(4′,5′-dimethyl-2′H-3′,6′-dihydrothiane)] was tested, and the “control (efficacy)” value [3] was “at least 50%”.
